# Values of other authors as cited in US20240023554A1, “MICROPARTICLE COMPOSITIONS COMPRISING TRIFLUDIMOXAZIN” (BASF SE, priority 2020, published 2024).
# Conditions: background statement
smiles,measurement,value
"C#CCN1C(=O)C(F)(F)Oc2cc(F)c(-n3c(=O)n(C)c(=S)n(C)c3=O)cc21 [Trifludimoxazin, 1,5-dimethyl-6-thioxo-3-[2,2,7-trifluoro-3-oxo-4-(prop-2-yn-1-yl)-3,4-dihydro-2H-1,4-benzoxazin-6-yl]-1,3,5-triazinane-2,4-dione]",solubility in water,only sparingly soluble in water
